The results in this text go back to US20160015033A1, “COMPOUNDS DERIVED FROM HERBICIDAL CARBOXYLIC ACIDS AND TETRAALKYLAMMONIUM OR (ARYLALKYL)TRIALKYLAMMONIUM HYDROXIDES” (DOW AGROSCIENCES LLC, priority 2014, published 2016).

Data set [1] concerns Broadleaf Dock Rumex obtusifolia. The experiment in a line: Post-emergence greenhouse herbicide evaluation, Broadleaf Dock. Type of data set: in vivo. The conditions noted are these: 560 g ae/ha, 14 days after application, visual injury 0 to 100% vs untreated control. An excerpt: (§1) A peat based potting soil, Metro-mix 360, was used as the soil media for this test. Metro-mix is a growing medium consisting of 35 to 45% specially processed Coconut Coir Pith, 10 to 20% horticultural grade vermiculite, 15 to 25% processed Ash Bark, 20 to 30% choice Canadian Sphagnum Peat Moss and proprietary nutrients and other ingredients. Several seeds of each species were to planted in 10 cm square pots and top watered twice daily. Plant material was propagated in the greenhouse at a constant temperature of 26 to 28° C. and 50 to 60% relative humidity. Natural light was supplemented with 1000-watt metal halide overhead lamps with an average illumination of 500 μE m^−2 s^−1 photosynthetic active radiation (PAR). Day length was 16 hours. Plant material was top-watered prior to treatment and sub-irrigated after treatment. […] The growth stage of the various weed species ranged from 2 to 4 leaf. Treatments were replicated 3 times. Plants were returned to the greenhouse after treatment and sub-watered throughout the duration of the to experiment. Plant material was fertilized twice weekly with Hoagland's fertilizer solution. Percent visual injury assessments were made on a scale of 0 to 100% as compared to the untreated control plants (where 0 is equal to no injury and 100 is equal to complete death of the plant).

The subject of another data set is Kochia Kochia scoparia. Put plainly: Post-emergence greenhouse herbicide evaluation, Kochia. Format: in vivo. Particulars: 560 g ae/ha, 14 days after application, visual injury 0 to 100% vs untreated control.
From the text: as §1

Data set [2] relates to grapes (Vitis labrusca L.). The experiment in a line: Volatility evaluation: injury to grapes from vapor exposure. The conditions noted are these: wheat sprayed at 11200 g ae/ha, 24 hour vapor exposure at 40° C., evaluated 7 days after exposure.
From the text: Four pots of wheat (Triticum aestivum L.) grown in 4 inch square pots were sprayed at 11200 g ae/ha with each of the different forms of 2,4-D. Treatments were applied with a tracksprayer manufactured by Allen Machine Works. The sprayer utilized an 8002E spray nozzle, spray pressure of 262 kPa pressure and speed of 1.5 mph (2.4 km/h) to deliver 187 L/Ha. The nozzle height was 46 cm above the plant canopy. The growth stage of the wheat was 1 to 2 leaf. The wheat plants were allowed to thoroughly dry to ensure that none of the spray solution was present when they were moved into a clean pot flat. A known sensitive species, grapes (Vitis labrusca L.) were placed at the opposite end of the flat. All of the pots were covered with a humidome with small ½ inch (1.27 cm) diameter holes cut into the end where the wheat was placed and a small box fan powered with a battery in the other end to pull air across the treated wheat plants and over the top of grapes. Plants were placed into a growth chamber with the temperature set at 40° C. with a 14 hour day and a 10 hour night cycle. A 24 hour exposure period was used after which the sensitive plants were then removed and placed in the greenhouse and evaluated for injury from vapor exposure to the treatments.

With `CNC.O=C(O)COc1ccc(Cl)cc1Cl` [2,4-D dimethylamine (DMA), 2,4-D dimethylamine, reference compound], the “% Control Broadleaf Dock Rumex obtusifolia” value in data set [1] came to 77%. For the same compound, the “% Control Kochia Kochia scoparia” value in the data set with Kochia Kochia scoparia is recorded as 86%. Besides, the “% Injury to grapes from vapor exposure” value in data set [2] came out at 78%.
For the compound `CCCCOCCOC(=O)COc1ccc(Cl)cc1Cl` [2,-4-D butoxyethylester (BEE), 2,-4-D butoxyethylester], the “% Injury to grapes from vapor exposure” value in data set [2] is on record as 100%.
Turning to `C[N+](C)(C)C.O=C([O-])COc1ccc(Cl)cc1Cl` [Compound 1a], the “% Control Broadleaf Dock Rumex obtusifolia” value in data set [1] is 77%. The “% Control Kochia Kochia scoparia” value with Kochia Kochia scoparia is recorded as 83%.
For the compound `CC[N+](CC)(CC)CC.O=C([O-])COc1ccc(Cl)cc1Cl` [Compound 1b], the “% Control Broadleaf Dock Rumex obtusifolia” value in data set [1] worked out at 79%. The “% Control Kochia Kochia scoparia” value with Kochia Kochia scoparia came out at 89%. Further, in data set [2], the “% Injury to grapes from vapor exposure” value was determined as 0%.
In the case of `CCC[N+](CCC)(CCC)CCC.O=C([O-])COc1ccc(Cl)cc1Cl` [Compound 1c], the “% Control Broadleaf Dock Rumex obtusifolia” value in data set [1] was found to be 73%. Further, the “% Control Kochia Kochia scoparia” value in the data set on Kochia Kochia scoparia came out at 83%.
For `C[N+](C)(C)CCO.O=C([O-])COc1ccc(Cl)cc1Cl` [Compound 1e] the same measures were 68% and 86%.
For the compound `C[N+](C)(C)C.O=C([O-])COc1nc(Cl)c(Cl)cc1Cl` [Compound 2a], in data set [1], the “% Control Broadleaf Dock Rumex obtusifolia” value is 85%. Moreover, the “% Control Kochia Kochia scoparia” value in the data set on Kochia Kochia scoparia turned out to be 79%.
For the compound `CC[N+](CC)(CC)CC.O=C([O-])COc1nc(Cl)c(Cl)cc1Cl` [Compound 2b], the “% Control Broadleaf Dock Rumex obtusifolia” value in data set [1] is 79%. In addition, the “% Control Kochia Kochia scoparia” value in the data set on Kochia Kochia scoparia is reported as 88%. For the same compound, the “% Injury to grapes from vapor exposure” value in data set [2] was found to be 6%.
In the case of `CCC[N+](CCC)(CCC)CCC.O=C([O-])COc1nc(Cl)c(Cl)cc1Cl` [Compound 2c], the “% Control Broadleaf Dock Rumex obtusifolia” value in data set [1] is recorded as 79%. The “% Control Kochia Kochia scoparia” value in the data set on Kochia Kochia scoparia was 95%.
In the case of `COc1c(Cl)ccc(Cl)c1C(=O)[O-].C[N+](C)(C)C` [Compound 4a], the “% Injury to grapes from vapor exposure” value in data set [2] came to 12%.
For the compound `CCN(CC)CC.O=C(O)COc1nc(Cl)c(Cl)cc1Cl` [Triclopyr triethylamine (TEA), Triclopyr triethylamine, reference compound], the “% Control Broadleaf Dock Rumex obtusifolia” value in data set [1] worked out at 81%. Further, the “% Control Kochia Kochia scoparia” value with Kochia Kochia scoparia is 91%. Besides, the “% Injury to grapes from vapor exposure” value in data set [2] is listed as 57%.
As to Dicamba DMA, the “% Injury to grapes from vapor exposure” value in data set [2] turned out to be 70%.
